Experimental data taken from patent US12257247B2 (Monte Rosa Therapeutics AG, priority 2023, dated 2025).
Read-outs that look alike come from different tables or passages of the source.

Biological target: T1, VAV1 (Homo sapiens, UniProt P15498+Q96SW2)
T1 construct: A heterozygous VAV1 C-terminal HiBiT knock-in pool was generated at Monte Rosa Therapeutics from a clonal Jurkat cell; endogenous in cells; host or cells: Jurkat clone stably expressing LgBiT, homozygous GSPT1-G575N; heterozygous VAV1-HiBiT knock-in pool
Assay: VAV1 degradation activity, VAV1-HiBiT knock-in Jurkat luminescence assay (Example A, Table 1)
Format: cell-based
Conditions: VAV1-HiBiT knock-in Jurkat cells, luminescence read at 6 and 24 hours; for Dmax: Jurkat
Summary of the method: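 Jurkat cells carrying VAV1-HiBiT knock-in, plated in RPMI/10% FBS with Endurazine live-cell substrate and pre-incubated ~16 h at 37° C. Compound dosed from 10 μM stock; luminescence read 6 and 24 h later. Response normalised to plate negative/positive controls, EC50 from 3-parameter logistic fit (hillslope 1).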

[1] = read-out: VAV1 DC50 (nM), class

Dmax (read-out: VAV1 Dmax %) [%]	Dmax (read-out: VAV1 Dmax %, class) [%]	DC50 (read-out: VAV1 DC50) [nM]	DC50 [1] [nM]	Compound
98.2	> 90	2.46	≤ 100	CN1CC2(CCC2)N(c2ccc(-c3cccc(C4CCC(=O)NC4=O)c3Cl)cc2)C1=O (centres unmarked) [Compound 341, 3-(2-chloro-4′-(7-methyl-6-oxo-5,7-diazaspiro[3.4]octan-5-yl)-[1,1′-biphenyl]-3-yl)piperidine-2,6-dione]
97.7	> 90	4.56	≤ 100	CN1CC2(CC2)N(c2ccc(-c3cccc(C4CCC(=O)NC4=O)c3Cl)cc2)C1=O (centres unmarked) [Compound 342, 3-(2-chloro-4′-(6-methyl-5-oxo-4,6-diazaspiro[2.4]heptan-4-yl)-[1,1′-biphenyl]-3-yl)piperidine-2,6-dione]
86.3	60 to 90	161	100 to 1000	O=C1CCC(c2cccc(-c3ccc(-n4c(F)cccc4=O)nc3)c2Cl)C(=O)N1 (centres unmarked) [Compound 343, 3-(2-chloro-3-(6-fluoro-2-oxo-2H-[1,2′-bipyridin]-5′-yl)phenyl)piperidine-2,6-dione]
98	> 90	6.97	≤ 100	O=C1CCC(c2cccc(-c3ccc(Cc4nccc(C5CC5)n4)cc3)c2Cl)C(=O)N1 (centres unmarked) [Compound 344, 3-(2-chloro-4′-((4-cyclopropylpyrimidin-2-yl)methyl)-[1,1′-biphenyl]-3-yl)piperidine-2,6-dione]
97.9	> 90	3.53	≤ 100	O=C1CCC(c2cccc(-c3ccc(N4C(=O)OCCC45CC5)cc3)c2Cl)C(=O)N1 (centres unmarked) [Compound 345, 3-(2-chloro-4′-(5-oxo-6-oxa-4-azaspiro[2.5]octan-4-yl)-[1,1′-biphenyl]-3-yl)piperidine-2,6-dione]
29.4	< 60	≥ 10000	> 1000	CN1CC(=O)N(c2ccc(-c3cccc(C4CCC(=O)NC4=O)c3Cl)cn2)CC12CC2 (centres unmarked) [Compound 346, 3-(2-chloro-3-(6-(4-methyl-6-oxo-4,7-diazaspiro[2.5]octan-7-yl)pyridin-3-yl)phenyl)piperidine-2,6-dione]
96.4	> 90	17.1	≤ 100	O=C1CCC(c2cccc(-c3ccc(Cc4nccc(C(F)(F)F)n4)cc3)c2Cl)C(=O)N1 (centres unmarked) [Compound 347, 3-(2-chloro-4′-((4-(trifluoromethyl)pyrimidin-2-yl)methyl)-[1,1′-biphenyl]-3-yl)piperidine-2,6-dione]
95.2	> 90	11.7	≤ 100	O=C1CCC(c2cccc(-c3ccc(Cc4nccc(C(F)F)n4)cc3)c2Cl)C(=O)N1 (centres unmarked) [Compound 348, 3-(2-chloro-4′-((4-(difluoromethyl)pyrimidin-2-yl)methyl)-[1,1′-biphenyl]-3-yl)piperidine-2,6-dione]
98.3	> 90	2.21	≤ 100	O=C1CCC(c2cccc(-c3ccc(N4C(=O)NCCC45CCC5)cc3)c2Cl)C(=O)N1 (centres unmarked) [Compound 349, 3-(2-chloro-4′-(6-oxo-5,7-diazaspiro[3.5]nonan-5-yl)-[1,1′-biphenyl]-3-yl)piperidine-2,6-dione]
97.3	> 90	7.18	≤ 100	O=C1CCC(c2cccc(-c3ccc(N4C(=O)CCCC45CC5)c(F)c3)c2Cl)C(=O)N1 (centres unmarked) [Compound 350, 3-(2-chloro-3′-fluoro-4′-(5-oxo-4-azaspiro[2.5]octan-4-yl)-[1,1′-biphenyl]-3-yl)piperidine-2,6-dione]
87	60 to 90	82.5	≤ 100	O=C1CCC(c2cccc(-c3ccc(N4C(=O)OCCC45CC5)nc3)c2Cl)C(=O)N1 (centres unmarked) [Compound 351, 3-(2-chloro-3-(6-(5-oxo-6-oxa-4-azaspiro[2.5]octan-4-yl)pyridin-3-yl)phenyl)piperidine-2,6-dione]
